Experimental findings from ChEMBL document CHEMBL2203023, “Synopsis of some recent tactical application of bioisosteres in drug design” (J Med Chem, 2011) are described below.

What is called Km is the concentration of substrate that gives half-maximal velocity. A word on the inhibition: it is the share of the control response that was lost under treatment.

In series [1] the target is T1, Dolichol-phosphate-mannose synthase (Trypanosoma brucei brucei) (UniProt Q5QQ41).
T1 sequence (whole entry): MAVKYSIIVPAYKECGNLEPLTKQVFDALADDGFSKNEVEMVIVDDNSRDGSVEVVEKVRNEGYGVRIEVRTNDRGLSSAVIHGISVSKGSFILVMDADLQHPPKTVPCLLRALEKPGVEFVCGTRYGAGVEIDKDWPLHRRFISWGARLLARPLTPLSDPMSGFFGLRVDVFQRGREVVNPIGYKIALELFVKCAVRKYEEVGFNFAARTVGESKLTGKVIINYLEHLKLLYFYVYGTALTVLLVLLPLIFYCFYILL
The note with it: 1 mM.

Chain of 4-aminobutyrate aminotransferase, mitochondrial (Homo sapiens), P80404 (P80404 whole entry): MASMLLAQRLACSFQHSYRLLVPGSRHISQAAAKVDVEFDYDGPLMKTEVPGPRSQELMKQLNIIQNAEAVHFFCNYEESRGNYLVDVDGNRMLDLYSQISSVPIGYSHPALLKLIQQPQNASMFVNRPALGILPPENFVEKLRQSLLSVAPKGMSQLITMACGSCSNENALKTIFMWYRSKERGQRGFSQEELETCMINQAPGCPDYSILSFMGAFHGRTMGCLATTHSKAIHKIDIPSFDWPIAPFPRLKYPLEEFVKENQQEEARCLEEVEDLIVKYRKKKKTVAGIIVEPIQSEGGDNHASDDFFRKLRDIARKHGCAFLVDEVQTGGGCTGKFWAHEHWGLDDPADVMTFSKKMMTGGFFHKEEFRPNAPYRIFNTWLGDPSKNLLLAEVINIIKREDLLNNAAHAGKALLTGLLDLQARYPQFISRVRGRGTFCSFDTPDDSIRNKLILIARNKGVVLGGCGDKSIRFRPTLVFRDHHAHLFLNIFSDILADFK

On to “4-aminobutyrate aminotransferase, mitochondrial (Homo sapiens), P80404”, for which, in the series with NCCCC(=O)O, the Km was 2500 µM.
As for `Nc1nc2c(ncn2[C@@H]2O[C@H](CNc3c(NCc4ccccc4C(=O)O)c(=O)c3=O)[C@@H](O)[C@H]2O)c(=O)[nH]1`, the inhibition in series [1] was determined as 64%.
The same measure, in the same setting: then `Nc1nc2c(ncn2[C@@H]2O[C@H](COP(=O)(O)OP(=O)(O)O)[C@@H](O)[C@H]2O)c(=O)[nH]1`, with 8.5%.
